Measured values as given in patent publication US11890279B2, “Quinolines that modulate SERCA and their use for treating disease” (Neurodon Corporation, priority 2020, dated 2024).

Experiments:
[1] = tested on: HEK293 cells; assay: Protection against thapsigargin (TG)-induced cell death, HEK293; assay type: cell-based, human; conditions: compound 20 μM; thapsigargin 15 μM; 24 hrs
How it was run: (§1)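 Cells pretreated with 20 μM compound for 2 h, then thapsigargin (15 μM HEK293, 1 μM N2a) for 24 h to induce ER stress. Viability by AlamarBlue fluorescence at 2 h as % RFU of control, binned A–D by % cell rescue.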

[2] = tested on: N2a cells; assay: Protection against thapsigargin (TG)-induced cell death, N2a; assay type: cell-based, mouse; conditions: compound 20 μM; thapsigargin 1 μM; 24 hrs
How it was run: as §1

[3] = tested on: N2a cells; assay: Protection against hydrogen peroxide-induced cell death, N2a; assay type: cell-based, mouse; conditions: compound 40 μM; hydrogen peroxide 200 μM
How it was run: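 N2a cells were pretreated 2 h with compound at 40 μM, then exposed to 200 μM H2O2 for 40 min. AlamarBlue (10% v/v) was added and fluorescence read 2 h later. Viability expressed as % RFU of control, reported as % cell rescue.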

[4] = tested on: Ca^2+-ATPase; assay: Ca2+-ATPase assay, microsomal preparations from HEK 293 cells; assay type: biochemical, human
Protocol: A Ca^2+-ATPase assay was performed using microsomal preparations from HEK 293 cells at a series of calcium concentrations corresponding to the physiological range, relative to controls. The ATP hydrolysis rate was measured over a range of calcium concentrations in the presence of test compounds using an NADH-linked, enzyme-coupled ATPase assay adapted for 96-well microplates, with Vmax determined by fitting the ATPase calcium-dependence to the Hill function. […] CaCl2 was added to set free [Ca^2+] to the specific values.

[5] = tested on: ob/ob mice; assay: Effect on the level of blood glucose in ob/ob mice; assay type: in vivo, mouse; conditions: for blood glucose: 10 or 50 mg/kg i.p. once a day for 5 days, as early as day 2; for glucose level after the last injection: for over a week after the last injection
Protocol: Fasting glucose was measured at baseline and 10 hours after the administration of the test compound. Glucose levels were measured in blood samples drawn from the tail vein using the OneTouch Ultra 2 Meter (LifeScan, Inc.).

[6] = tested on: livers of ob/ob mice; assay: Reduction of ER stress markers in liver of ob/ob mice (western blot); assay type: in vivo, mouse; conditions: 50 mg/kg
Protocol: Proteins were analyzed by western blot and quantified. Bands were normalized to GAPDH and expressed as 100% of ob/ob+vehicle (ob). Liver tissues were homogenized with a bench-top homogenizer in an ice-cold tissue lysis buffer. The homogenized samples were centrifuged at 8,000×g for 20 min at 4° C. The lipid layer was removed and the supernatant was transferred into Eppendorf tubes. After centrifuging at 16,000×g for 60 min at 4° C., the supernatants were normalized to the same concentration and boiled at 100° C. in 1× Laemmli buffer for 5 min. The lysate was cooled to room temperature before loading for Western blot analysis. Protein lysate was resolved on SDS polyacrylamide gel and transferred onto PVDF membrane at a voltage of 100 V for 2 hrs at 4° C. The membrane was blocked in 10% blocking reagent and incubated overnight with a primary antibody in Tris-buffered saline solution/Tween (TBST)/10% blocking reagent at 4° C. After incubation, the membrane was washed three times in TBST for 20 min and incubated at room temperature with a secondary antibody in TBST/10% blocking reagent for 1 hr. The membrane was washed three times for 20 min and developed using a chemiluminescence assay system. To strip a membrane for another primary antibody, the membrane was agitated at 50° C. for 20 min in a box with stripping buffer (2% SDS and 100 mM 2-mercaptoethanol in TBS, pH 7.5). […]

[7] = Pharmacokinetics in CD-1 mice; assay type: in vivo, mouse; conditions: for F / AUC / Cmax / half-life: CD-1 mice; for F: 10 mg/kg P.O. vs 2 mg/kg i.v.; for AUC / Cmax / half-life: mouse, plasma, 2 mg/kg i.v. or 10 mg/kg P.O.
How it was run: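 CD-1 mice (triplicate) dosed 2 mg/kg i.v. or 10 mg/kg oral gavage, formulated 1 mg/mL in DMSO/Tween 80/water (10/10/80). EDTA plasma sampled 0.25–24 h, acetonitrile-precipitated and quantified by positive-ion MRM LC/MS/MS against internal standard; PK parameters fitted from concentration–time data.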

Row | Compound | HEK293 Cells (TG-induced) cell rescue [1] | N2a Cells (TG-induced) cell rescue [2] | N2a Cells (H2O2-induced) cell rescue [3] | increase in baseline ATPase activity [4] | blood glucose [5] | glucose level after the last injection [5] | phosphorylation of PERK and elF2α [6] | F [7] [%] | AUC [7] [ng·h/mL] | Cmax [7] [nM] | half-life [7] [min] | pharmacokinetic properties as measured by CMAX, AUC and F (%) ([7]; compared with other SERCA modulators, see Table 6)
1 | Cc1ccc2cccc(NC(=O)c3ccc(OC(C)C)cc3)c2n1 [Compound A12, 4-Isopropoxy-N-(2-methylquinolin-8-yl)benzamide] | A (A represents a value greater than 50% cell rescue) | B (B represents a value between 10% to 50% cell rescue) | B (B represents a value between 10% to 50% cell rescue) | 10-15% | significantly lowered | identical to lean mice | significantly reduced | 2.3 | 25.1 | 200 | 13.4 | –
2 | Cc1ccc2cccc(NC(=O)c3ccc(N(C)C)cc3)c2n1 [Compound C18, 4-N,N-Dimethylamino-N-(2-methylquinolin-8-yl)benzamide] | A (A represents a value greater than 50% cell rescue) | A (A represents a value greater than 50% cell rescue) | B (B represents a value between 10% to 50% cell rescue) | greater than 15% | significantly lowered | identical to lean mice | significantly reduced | 35 | 380 | 900 | 53.4 | significantly improved pharmacokinetic properties
